Earlier results in patent US6933291B2, “Cholesterol lowering supplement” (N.V. Nutricia, priority 2000, dated 2005).

Key:
[1] = case reports from the literature
[2] = rats
HMG-CoA reductase = details: rats given cholesterol

SMILES: CC[C@H](C)C(=O)O[C@H]1C[C@@H](C)C=C2C=C[C@H](C)[C@H](CC[C@@H]3C[C@@H](O)CC(=O)O3)[C@H]21 [Lovastatin, lovastatin]
- adverse effect reported in patients [1]: liver failure

SMILES: CC[C@H](CC[C@@H](C)[C@H]1CC[C@H]2[C@@H]3CC=C4C[C@@H](O)CC[C@]4(C)[C@H]3CC[C@]12C)C(C)C [beta-sitosterol]
- cholesterol absorption (effect in words) [2]: inhibited
- cholesterol synthesis ([2]; increased from 20.0 mg/day): 28.8 mg/day

SMILES: CC(C)CCC[C@@H](C)[C@H]1CC[C@H]2[C@@H]3CC=C4C[C@@H](O)CC[C@]4(C)[C@H]3CC[C@]12C [cholesterol]
- HMG-CoA reductase activity inhibited (HMG-CoA reductase): 80%
- conversion of cholesterol to bile acids ([2]; enhanced from 13.7 mg/day on feeding cholesterol): 27.3 mg/day
- cholesterol absorption ([2]; increased from 1.2 mg/day on feeding cholesterol): 70 mg/day
